Series [1] concerns EV71. Nature of the series: EV71 antiviral assay (EC50). The series is classed as cell-based, Enterovirus 71.
A short description of series [2]: Cell toxicity (CC50) in HRV assay. The conditions noted are these: human, HRV CC50.
The nature of series [3]: Cell toxicity (CC50) in EV71 assay. As to conditions: EV71 CC50.
Series [4] deals with EV68. Nature of the series: EV68 antiviral assay (EC50). Type of series: cell-based.
Series [5] in a line: Microsomal stability, mouse liver microsomes. The series is classed as in vitro ADME. (In general: Liver microsomes are a subcellular fraction often used to study metabolism.)
In series [6] the test system is HCV. Put plainly: Anti-HCV assay (EC50). Type of series: cell-based. The conditions noted are these: Hepatitis C virus, read-out: HCV EC50. The method, then:
Anti-HCV assay: Anti-HCV assays are performed as described by Cho et al. “Identification of a class of HCV inhibitors directed against the nonstructural protein NS4B.” Sci. Transl. Med. 2011; 2(15):15ra6.

Series [7] deals with HRV. Nature of the series: Rhinovirus antiviral assay (EC50). The series is classed as cell-based. As to conditions: Human rhinovirus sp.
The nature of series [8]: Microsomal stability, human liver microsomes. The series is classed as in vitro ADME.
Series [9] is described as follows: Cell toxicity (CC50) in EV68 assay. The conditions noted are these: EV68 CC50.
Series [10] in a line: Caco-2 permeability assay. The series is classed as in vitro ADME. The conditions noted are these: human, read-out: Caco2 Papp × 1e−6 cm/s. The procedure:
Compounds of interest were tested in a variety of cell-based assays for antiviral activity.
(In general: Passage across Caco-2 layers is used to estimate intestinal permeability.)

For series [11], the system named is HeLa S3 cells. Put plainly: Cell toxicity (CC50) in HRV assay. As to conditions: human.
In series [12] the test system is cells (EV71 assay). Put plainly: Cell toxicity (CC50) in EV71 assay.

Each structure is given as a SMILES string. pEC50: −log10 of the molar value. Several values for one entry are separate records, joined by “and”; a condition that tells them apart may be missing. Identical values can stand only once. Like-named read-outs stand apart in the source and are kept apart here.

Turning to `COc1ccc(-c2sc(NC(C)(C)C3CCOCC3)nc2C)cc1S(=O)(=O)Nc1c(C)cccc1F` [Compound S-1], the pEC50 (usually −log10 of the EC50, conventionally taken in molar units) in series [1] (Enterovirus A, EV71) is 9.70; in series [4] it was 8.62 and 8.70; in series [6], 8.30; in series [7] it was 9.30. Besides, the CC50 – broadly, the concentration that lowers cell viability or growth by half – in [2] was determined as 15000 nM; in series [3] it was 100000 nM; in series [9], 18200 nM. Further, the half-life worked out at 8 min in [5] (read-out: HLM/MLM (t ½ min): MLM); 50 min in [5] (with ritonavir (concentration not stated), + Ritonavir, read-out: HLM/MLM (t ½ min) + Ritonavir: MLM); 6 min in series [8] (read-out: HLM/MLM (t ½ min): HLM); 68 min in series [8] (with ritonavir (concentration not stated), + Ritonavir, read-out: HLM/MLM (t ½ min) + Ritonavir: HLM). In addition, in [10], the Papp came out at 4 ×10⁻⁶ cm/s.
Regarding `COc1ccc(-c2sc(NC(C)(C)C3CCOCC3)nc2C)cc1S(=O)(=O)Nc1ccc(F)cc1Cl` [Compound S-4], the CC50 was 17000 nM in [11], 17300 nM in [2], 36000 nM in series [12] and 36500 nM in series [3]. In addition, the pEC50 in series [6] and in series [7] was 8.89 each time.
In the case of `COc1ccc(-c2sc(NC(C)(C)c3ccncc3)nc2C)cc1S(=O)(=O)Nc1c(C)cccc1F` [Compound S-37], the pEC50 in [1] (Enterovirus A, EV71) is 10.00; in series [4] it was 9.30; in [6], 10.00. For the same molecule, the CC50 in [2] was found to be 4390 nM; in series [3], 21800 nM; in series [9], 3880 nM.
Take `COc1ccc(-c2sc(NC(C)(C)c3ccccc3)nc2C)cc1S(=O)(=O)Nc1ccc(O)cc1` [Compound S-38]: the pEC50 in series [6] was 9.22; in series [7], 9.70.
Regarding `COc1ccc(-c2sc(NC(C)(C)C3CCOCC3)nc2C)cc1S(=O)(=O)Nc1ccc(NC(C)=O)cc1` [Compound S-40], the pEC50 in series [1] (Enterovirus A, EV71) was 10.12; in series [4], 8.92; in [6] it was 9.70. The figures for the CC50 in series [2], in [3] and in series [9] were 40800 nM, 78100 nM and 42700 nM, respectively.
As for `COc1ccc(-c2sc(NC(C)(C)c3ccccc3)nc2C)cc1S(=O)(=O)NC1CCNCC1` [Compound S-41], the pEC50 in series [1] (Enterovirus A, EV71) was 9.05; in [4], 7.23; in [6] it was 8.00. The half-maximal cytotoxic concentration (CC50) in [2] was 1900 nM; in [3] it was 776 nM; in series [9] it was 2090 nM.
For the molecule `COc1ccc(-c2sc(NC(C)(C)c3ccccc3)nc2C)cc1S(=O)(=O)NC1CCN(C=O)CC1` [Compound S-43], the pEC50 in [1] (Enterovirus A, EV71) was 9.52; in series [4], 8.29; in [6] it was 8.68. The cytotoxic concentration (CC50) in series [2] came to 100000 nM; in [3], 17500 nM; in series [9] it was 100000 nM.
As for `COc1ccc(-c2sc(NC(C)(C)c3ccccc3)nc2C)cc1S(=O)(=O)Nc1ccncc1C(F)(F)F` [Compound S-44], the pEC50 in series [1] (Enterovirus A, EV71) was 8.46; in series [4], 5.70; in [6], 7.51. Further, the CC50 in series [2] came out at 32100 nM; in [3], 18200 nM; in series [9], 33500 nM.
As for `COc1ccc(-c2oc(NC(C)(C)c3ccccc3)nc2C)cc1S(=O)(=O)Nc1ccncc1C` [Compound S-46], the negative-log EC50 (pEC50) is 9.40 in series [1] (Enterovirus A, EV71); 8.59 in series [4]; 9.05 in [6]. In addition, the CC50 worked out at 52400 nM in series [2], 24500 nM in series [3] and 44500 nM in series [9].
Regarding `COc1ccc(-c2oc(NC(C)(C)c3ccccn3)nc2C)cc1S(=O)(=O)Nc1ccncc1C` [Compound S-47], the negative logarithm of the EC50 (pEC50) in [1] (Enterovirus A, EV71) was 8.92; in series [4] it was 7.56; in series [6] it was 8.02. For the same molecule, the CC50 was determined as 49500 nM in [2], 21100 nM in series [3] and 49100 nM in series [9].
As for `COc1ccc(-c2oc(NC(C)(C)c3cccnc3)nc2C)cc1S(=O)(=O)Nc1ccncc1C` [Compound S-48], the pEC50 is 8.35 in series [1] (Enterovirus A, EV71); 6.66 in series [4]; 7.13 in series [6]. In addition, the CC50 in series [2], in series [3] and in series [9] was 100000 nM each time.
Turning to `COc1ccc(-c2sc(NC(C)(C)c3ccncc3)nc2C)cc1S(=O)(=O)Nc1ccncc1C` [Compound S-49], the pEC50 in series [1] (Enterovirus A, EV71) is 9.00; in [4] it was 7.29; in series [6] it was 8.00. The 50% cytotoxic concentration (CC50) in series [2] was 66300 nM; in series [3], 29500 nM; in series [9], 71400 nM.
Take `COc1ccc(-c2sc(NC(C)(C)C3CCOCC3)nc2C)cc1S(=O)(=O)Nc1ccncc1C` [Compound S-50]: the negative logarithm of the EC50 (pEC50) was 8.92 in series [1] (Enterovirus A, EV71); 7.89 in series [4]; 8.12 in series [6]. The CC50 in series [2] is 46600 nM; in [3], 38100 nM; in series [9], 37600 nM.
Consider `COc1ccc(-c2sc(NC(C)(C)C3CCN(C(C)=O)CC3)nc2C)cc1S(=O)(=O)Nc1ccc(F)cc1Cl` [Compound S-51], for which the pEC50 is 8.89 in [1] (Enterovirus A, EV71); 7.94 in series [4]; 8.82 in series [6]. For the same molecule, the 50% cytotoxic concentration (CC50) in series [2] turned out to be 52700 nM; in series [3] it was 62100 nM; in [9] it was 37000 nM.
Turning to `COc1ccc(-c2sc(NC(C)(C)C3CCNCC3)nc2C)cc1S(=O)(=O)Nc1ccc(F)cc1Cl` [Compound S-52], the pEC50 in series [1] (Enterovirus A, EV71) is 4.12; in series [4], 4.00; in series [6] it was 4.12. In addition, the CC50 in series [2] was 2320 nM; in series [3], 3070 nM; in series [9] it was 2230 nM.
Turning to `COc1ccc(-c2sc(NC(C)(C)C3CCNCC3)nc2C)cc1S(=O)(=O)Nc1cccnc1C` [Compound S-53], the negative logarithm of the EC50 (pEC50) in series [1] (Enterovirus A, EV71) was 5.45; in [4], 4.91; in series [6] it was 4.91. The figures for the CC50 in series [2], in series [3] and in [9] were 100000 nM, 47900 nM and 100000 nM, respectively.
`COc1ccc(-c2sc(NC34CC(C3)C4)nc2C)cc1S(=O)(=O)Nc1c(C)cccc1F` [Compound S-55]: the pEC50 in series [1] (Enterovirus A, EV71) is 8.74; in series [4], 8.17; in series [6], 9.00. For the same molecule, the CC50 in [2] worked out at 19400 nM; in [3], 100000 nM; in [9], 22100 nM.
`COc1ccc(-c2sc(NC(C)(C)c3ccccc3)nc2C)cc1S(=O)(=O)NC1CCN(S(C)(=O)=O)CC1` [Compound S-57]: the negative-log EC50 (pEC50) is 9.05 in [1] (Enterovirus A, EV71); 9.00 in [4]; 9.05 in series [6]; 9.05 in [7]. Further, the CC50 in [11] was determined as 95000 nM; in [2] it was 95200 nM; in [3], 96100 nM; in series [9], 100000 nM.
In the case of `COc1ccc(-c2sc(NC(C)(C)C3CCCCC3)nc2C)cc1S(=O)(=O)Nc1c(C)cccc1F` [Compound S-58], the pEC50 in [1] is 8.22; in series [1] (Enterovirus A, EV71) it was 8.17; in series [4], 7.87 and 7.89; in [6], 7.65; in [7], 7.66. For the same molecule, the cytotoxic concentration (CC50) in series [2], in [3] and in [9] was 100000 nM throughout.
With `COCC(C)(C)Nc1nc(C)c(-c2ccc(OC)c(S(=O)(=O)Nc3c(C)cccc3F)c2)s1` [Compound S-63], the pEC50 in series [1] (Enterovirus A, EV71) was 8.08; in series [4] it was 8.47; in series [6], 8.82. Besides, the 50% cytotoxic concentration (CC50) in [2] came to 27700 nM; in [3] it was 83800 nM; in [9] it was 40600 nM.
Turning to `COc1ccc(-c2oc(NC(C)(C)c3ccccc3)nc2C)cc1S(=O)(=O)Nc1c(C)cccc1F` [Compound S-65], the negative-log EC50 (pEC50) is 8.57 in series [1] (Enterovirus A, EV71); 8.62 in series [4]; 8.74 in series [6]. Besides, the CC50 in series [2] came out at 46300 nM; in series [3], 31300 nM; in [9], 1700 nM.
In the case of `COc1ccc(-c2sc(N[C@@H](C)c3ccccc3)nc2C)cc1S(=O)(=O)Nc1c(C)cccc1F` [Compound S-74], the pEC50 in series [1] (Enterovirus A, EV71) is 9.05; in series [4], 9.00; in [7] it was 9.05. For the same molecule, the 50% cytotoxic concentration (CC50) amounted to 95000 nM in series [2], 95000 nM in series [3] and 100000 nM in series [9].
With `COc1ccc(-c2sc(N[C@H](C)c3ccccc3)nc2C)cc1S(=O)(=O)Nc1c(C)cccc1F` [Compound S-75], the pEC50 in series [1] (Enterovirus A, EV71) is 8.22; in series [4], 7.89; in series [7], 7.66. Also, the half-maximal cytotoxic concentration (CC50) in [2], in series [3] and in series [9] was 100000 nM each time.
With `COc1ccc(-c2sc(NCC3CCOCC3)nc2C)cc1S(=O)(=O)Nc1ccc(F)cc1Cl` [Compound S-77], the 50% cytotoxic concentration (CC50) in series [2] was 66000 nM. The molecule further showed a pEC50 in [7] of 6.08.
